According to the NIST ThermoML archive (doi:10.1016/j.jct.2018.07.026):

Tests used:
[1] = for Normal melting temperature: Crystal 1, DTA
[2] = Molar enthalpy of transition or fusion; settings: Crystal 1; DSC
[3] = molar heat capacity at constant pressure; settings: 78.8 kPa, Crystal, DSC

O=C(O)c1ccc([N+](=O)[O-])cc1C(=O)O [4-nitrophthalic acid]
Settings	mass density [kg/m3]
[1], 298.15 K, 101.33 kPa, Crystal, Pycnometric method	1647

Settings	Molar enthalpy of transition or fusion [kcal/mol]	Normal melting temperature [°C]
[1]	–	167
[2]	8.84	–

[3]
Settings	molar heat capacity at constant pressure [J/K/mol]
295.15 K	229.53
296.15 K	230.9
297.15 K	232.06
298.15 K	233.01
299.15 K	233.22
300.15 K	234.59
301.15 K	236.28
302.15 K	237.02
303.15 K	237.97
304.15 K	239.13
305.15 K	239.66
306.15 K	240.19
307.15 K	240.5
308.15 K	240.61
309.15 K	240.93
310.15 K	242.51
311.15 K	241.24
312.15 K	242.62
313.15 K	243.57
314.15 K	244.09
315.15 K	244.83
316.15 K	245.36
317.15 K	246.1
318.15 K	246.2
319.15 K	246.94
320.15 K	248
321.15 K	248.74
322.15 K	249.37
323.15 K	250.22
324.15 K	250.95
325.15 K	251.69
326.15 K	252.22
327.15 K	252.64
328.15 K	253.38
329.15 K	254.02
330.15 K	254.54
331.15 K	255.07
332.15 K	255.71
333.15 K	256.23
334.15 K	256.76
335.15 K	257.5
336.15 K	258.34
337.15 K	256.97
338.15 K	258.45
339.15 K	258.98
340.15 K	259.4
341.15 K	259.93
342.15 K	260.67
343.15 K	261.41
344.15 K	261.72
345.15 K	262.25
346.15 K	262.78
347.15 K	263.52
348.15 K	263.94
349.15 K	264.47
350.15 K	264.99
351.15 K	265.42
352.15 K	266.05
353.15 K	266.26
354.15 K	266.79
355.15 K	267.32
356.15 K	267.74
357.15 K	267.95
358.15 K	268.58
359.15 K	268.9
360.15 K	269.64
361.15 K	269.85
362.15 K	270.27
363.15 K	270.59
364.15 K	271.12
365.15 K	271.86
366.15 K	272.17
367.15 K	272.81
368.15 K	273.23
369.15 K	274.07
370.15 K	274.39
371.15 K	275.02
372.15 K	275.23
373.15 K	275.66
374.15 K	276.29
375.15 K	276.61
376.15 K	277.03
377.15 K	277.56
378.15 K	278.51
379.15 K	279.03
380.15 K	279.56
381.15 K	280.3
382.15 K	280.83
383.15 K	281.57
384.15 K	282.1
385.15 K	282.84
386.15 K	283.26
387.15 K	284.21
388.15 K	284.95
389.15 K	285.37
390.15 K	286.64
391.15 K	287.48
392.15 K	288.22
393.15 K	288.32
394.15 K	289.27
395.15 K	290.33

O=C(O)c1cccc([N+](=O)[O-])c1C(=O)O [3-nitro-1,2-benzenedicarboxylic acid]
Settings	Molar enthalpy of transition or fusion [kcal/mol]	Normal melting temperature [°C]
[1]	–	223.2
[2]	13.2	–

[3]
Settings	molar heat capacity at constant pressure [J/K/mol]
295.15 K	242.66
296.15 K	244.28
297.15 K	245.61
298.15 K	246.53
299.15 K	247.02
300.15 K	248.36
301.15 K	249.69
302.15 K	250.75
303.15 K	251.67
304.15 K	252.72
305.15 K	253.35
306.15 K	253.99
307.15 K	254.41
308.15 K	254.83
309.15 K	255.47
310.15 K	256.8
311.15 K	255.96
312.15 K	257.22
313.15 K	258
314.15 K	258.77
315.15 K	259.12
316.15 K	260.18
317.15 K	260.67
318.15 K	261.31
319.15 K	261.94
320.15 K	262.71
321.15 K	263.56
322.15 K	264.19
323.15 K	264.97
324.15 K	265.67
325.15 K	266.44
326.15 K	266.94
327.15 K	267.57
328.15 K	268.41
329.15 K	268.77
330.15 K	269.4
331.15 K	269.96
332.15 K	270.6
333.15 K	271.23
334.15 K	271.79
335.15 K	272.36
336.15 K	273.27
337.15 K	272.43
338.15 K	273.83
339.15 K	274.4
340.15 K	275.03
341.15 K	275.66
342.15 K	276.44
343.15 K	277.14
344.15 K	277.63
345.15 K	278.34
346.15 K	278.97
347.15 K	279.75
348.15 K	280.38
349.15 K	280.94
350.15 K	281.5
351.15 K	281.72
352.15 K	282.07
353.15 K	282.49
354.15 K	282.91
355.15 K	283.48
356.15 K	284.11
357.15 K	284.32
358.15 K	285.02
359.15 K	285.59
360.15 K	286.22
361.15 K	286.71
362.15 K	287.21
363.15 K	287.7
364.15 K	288.12
365.15 K	288.68
366.15 K	289.32
367.15 K	289.95
368.15 K	290.3
369.15 K	290.86
370.15 K	291.29
371.15 K	291.64
372.15 K	292.06
373.15 K	292.62
374.15 K	293.26
375.15 K	293.47
376.15 K	294.1
377.15 K	294.59
378.15 K	295.23
379.15 K	295.72
380.15 K	296.07
381.15 K	296.57
382.15 K	296.99
383.15 K	297.55
384.15 K	297.9
385.15 K	298.39
386.15 K	298.68
387.15 K	299.24
388.15 K	299.73
389.15 K	300.01
390.15 K	300.86
391.15 K	301.21
392.15 K	301.49
393.15 K	301.84
394.15 K	302.2
395.15 K	302.69
396.15 K	303.25
397.15 K	303.74
398.15 K	304.45
399.15 K	305.22
400.15 K	305.71
401.15 K	306.28
402.15 K	306.84
403.15 K	307.33
404.15 K	307.68
405.15 K	308.25
406.15 K	308.74
407.15 K	309.02
408.15 K	309.73
409.15 K	310.15
410.15 K	310.64
411.15 K	311.13
412.15 K	311.56
